Source: patent publication EP3736570A1, “METHOD FOR THE DIAGNOSIS, SUB-CLASSIFICATION AND PROGNOSIS OF ACUTE KIDNEY INJURY BY DETECTING CCT7” (Fundación Instituto de Estudios de Ciencias de la Salud de …, priority 2019, dated 2020)
Where a name gives a salt, the structure may show the parent alone. Read-outs that look alike come from different tables or passages of the source.

Columns and labels:
[1] = system: MCT cells
Protocol: Where not otherwise indicated, reagents were purchased from Sigma (Madrid, Spain). A mouse cortical tubule cell line (MCT) was used for the study. Cells were maintained in RPMI 1640 medium (Gibco, Madrid, Spain) supplemented with 10% fetal bovine serum (FBS, Gibco, Madrid, Spain), 500 U/mL penicillin, 50 mg/mL streptomycin (Gibco, Madrid, Spain) and 1 mM L-glutamine. […] During the treatments, cells were photographed under live cell, light microscope (Axiovert 200M, Zeiss; and Nikon Eclipse TS100, Barcelona, Spain) for visual inspection.
MTT assay. Viable cell number was comparatively estimated by incubating cell cultures with 0.5 mg/mL 3-[4,5-dimethylthiazol-2-yl]-2,5-diphrnyl tetrazolium bromide (MTT) for 4h. Then, 10% SDS in 0.01 M HCL was added in 1:1 (vol/vol) and left overnight at 37 °C. Finally, absorbance was measured at 570 nm as an index of viable cell number.

[2] = system: MCT cells; remark: listed apart in the source
Protocol: (§4) Reagents, cells, and protocols. Where not otherwise indicated, reagents were purchased from Sigma (Madrid, Spain). A mouse cortical tubule cell line (MCT) was used for the study. Cells were maintained in RPMI 1640 medium (Gibco, Madrid, Spain) supplemented with 10% fetal bovine serum (FBS, Gibco, Madrid, Spain), 500 U/mL penicillin, 50 mg/mL streptomycin (Gibco, Madrid, Spain) and 1 mM L-glutamine. […] During the treatments, cells were photographed under live cell, light microscope (Axiovert 200M, Zeiss; and Nikon Eclipse TS100, Barcelona, Spain) for visual inspection. At the end, cell extracts were obtained in extraction buffer (25 mM PIPES, pH7; 25 mM KCI; 5 mM EGTA; 0,5% NP-40, and a mixture of protease inhibitors consisting of 1 mM phenylsulfonyl fluoride, 1 µg/mL leupeptine, and 1 µg/mL aprotinin). Protein content was determined with a commercial kit (Bio-Rad, Madrid, Spain) based in the Lowry method.

[3] = system: MCT cells; remark: listed apart in the source
Protocol: (§5) A mouse cortical tubule cell line (MCT) was used for the study. Cells were maintained in RPMI 1640 medium (Gibco, Madrid, Spain) supplemented with 10% fetal bovine serum (FBS, Gibco, Madrid, Spain), 500 U/mL penicillin, 50 mg/mL streptomycin (Gibco, Madrid, Spain) and 1 mM L-glutamine. […] During the treatments, cells were photographed under live cell, light microscope (Axiovert 200M, Zeiss; and Nikon Eclipse TS100, Barcelona, Spain) for visual inspection. At the end, cell extracts were obtained in extraction buffer (25 mM PIPES, pH7; 25 mM KCI; 5 mM EGTA; 0,5% NP-40, and a mixture of protease inhibitors consisting of 1 mM phenylsulfonyl fluoride, 1 µg/mL leupeptine, and 1 µg/mL aprotinin). Protein content was determined with a commercial kit (Bio-Rad, Madrid, Spain) based in the Lowry method.
(§6) Caspase activity. Twenty micrograms of protein from cell extracts were incubated with 100 µL reaction buffer (50 mM HEPES, pH7.4; 100 mM NaCl; 1 mM EDTA; 0.1% 3-[3-(cholamidopropyl)-dimethylammonio]-1-propane sulfonate; 10% sucrose; and 5 mM DTT) containing 100 µM of the fluorogenic caspase substrate rhodamine 110, bis-(N-CBZ-L-aspartyl-L-glutamyl-L-valyl-L-aspartic acidamide (Z-DEVD)2Rh110; Anaspec, Fremont, CA, USA)) at 37 °C for 30 min in a Fluoroskan Ascent FL fluorometer (Thermo, Rockford, IL, USA), and fluorescence intensity was measured every 3 min at 538 nm, upon excitation at 485 nm. Caspase activity was calculated from the slope of the linear relationship between fluorescence intensity and time.

[4] = system: MCT cells; experiment: Caspase (DEVDase) activity in cell extracts; type: cell-based, mouse; settings: cisplatin, 18 h, concentration-dependent
Description: (§1) Reagents, cells, and protocols.
(§2) Caspase activity. […] Western blot.

[5] = system: MCT cells; experiment: Internucleosomal DNA fragmentation; type: cell-based, mouse; settings: cisplatin, 18 h, concentration-dependent
Protocol: as §1
DNA fragmentation. DNA fragmentation was determined with the commercial kit Cell Death Detection Plus (Roche Diagnostics, Barcelona, Spain) in 10 µg of protein from each cell extract.

[6] = system: Male Wistar rats; experiment: Rat models of AKI: renal histopathology; type: in vivo; settings: hematoxylin and eosin, cisplatin 5 mg/kg i.p., gentamicin 150 mg/kg per day i.p. for 6 days
Description: (§3) Rat models of AKI. Male Wistar rats (220-240 g) were housed under controlled experimental conditions and allowed free access to regular chow and water. […] Rats were allocated in metabolic cages to obtain 24-hour, individual urine samples. Blood was drawn with a needle from the tail vein, and plasma was obtained by centrifugation and, at the end of the treatments, kidneys were perfused with heparinized saline and immediately dissected. Half of the kidney was fixed in paraformaldehyde for histological studies, and the rest was frozen at -80 °C for biochemical analysis.
Renal histopathology. Paraformaldehyde-fixed tissue samples were immersed in paraffin, cut into […] slices and stained with hematoxylin and eosin.

[7] = system: MCT cells; experiment: RT-qPCR analysis of gene expression; type: cell-based, mouse; settings: 0-30 µM cisplatin, 18 h, normalized with RPS13
Protocol: as §1
RT-qPCR analysis. Total RNA was isolated using Nucleospin RNAII (Macherey-Nagel, Düren, Germany). First-strand cDNA was generated from 1 µg of total RNA using poly-dT as primer with the M-MLV reverse transcriptase (Promega, Barcelona, Spain). Real-time PCR (qPCR) was performed in triplicate. In a total reaction volume of 20 µL containing 1 µL of cDNA, 0.4 µM of each primer and 1x iQSybrGreen Supermix (Bio-Rad), with initial denaturation at 95 °C for 5 min followed by 40 cycles of 30 sec at 95 °C, and 30 sec at 65 °C, and finally, one cycle of 30 sec at 72 °C. Threshold cycle (Ct) values were obtained. The sequences of TCP1-eta used were: sense 5'-[…]-3' (SEQ ID NO: 1); anti-sense 5'-[…]-3' (SEQ ID NO: 2); and RPS13: sense 5'-[…]-3' (SEQ ID NO: 3); anti-sense 5'-[…]-3' (SEQ ID NO: 4). Standard curves were run for each transcript to assure exponential amplification and to rule out non-specific amplification. Changes in the expression level were calculated following normalization with RPS13. The reactions were run on an iQ5 Real-Time PCR detection system (Bio-Rad, Madrid, Spain).

[8] = system: Male Wistar rats; experiment: Rat models of AKI: urinary markers by Western blot; type: in vivo
Description: as §2, §3

[9] = system: MCT cells; experiment: Apoptotic cells / death phenotype by light microscopy; settings: medium without serum, 18 h, cisplatin 0-30 µM, cycloheximide 50-800 µM
Protocol: as §4

[10] = system: MCT cells; experiment: Western blot / 2D proteomic analysis of culture medium and cell extracts; settings: 18 h, cisplatin 0-30 µM, cycloheximide 50-800 µM
Protocol: as §5, §6

[11] = system: Male Wistar rats; experiment: Rat models of AKI: renal function (plasma creatinine); type: in vivo; settings: cisplatin single i.p. 5 mg/kg, gentamicin i.p. 150 mg/kg per day for 6 days
Protocol: Renal function. Renal function was monitored by means of plasma creatinine and urea and urinary protein concentration, which were determined with commercial colorimetric kits (Quantichrom Creatinine and Quantichrom Urea Assay Kits, BioAssay Systems, Hayward, CA, USA), according to the manufacturer's instructions.

[12] = rats, cisplatin single i.p. 5 mg/kg, gentamicin i.p. 150 mg/kg per day for 6 days, Western blot

Compound: C[C@@H]1C[C@@H]([C@H](O)CC2CC(=O)NC(=O)C2)C(=O)[C@@H](C)C1 [Cycloheximide, cycloheximide]
- cell viability [1]: reduces cell viability
- number of apoptotic cells / apoptotic phenotype [2]: induces apoptosis
- TCP1-eta in the culture medium [3]: increases TCP1-eta secretion to the culture medium
- executioner caspase 3 (active caspase 3, p19 fragment) [3]: executioner caspase 3 activation

Compound: N.N.[Cl][Pt][Cl] [cisplatin]
- caspase (DEVDase) activity [4]: increased
- internucleosomal DNA fragmentation [5]: increased
- pattern of renal damage (region affected) [6]: both the cortex and the outer medulla
- TCP1-eta gene expression [7]: progressive TCP1-eta gene induction with increasing concentrations of the drug
- urinary NGAL [8, 12]: significantly increases
- urinary TCP1-eta [8, 12]: significantly increases
- number of apoptotic cells / apoptotic phenotype [9]: increased the number of apoptotic cells
- TCP1-eta in the culture medium [10]: increased with increasing concentrations of cisplatin

Compound: O=C(O)/C=C\C(=O)O [sodium maleate]
- urinary TCP1-eta ([8]; normal rats, single i.v. injection of sodium maleate 400 mg/kg): TCP1-eta is excreted with the urine

Compound: gentamicin
- pattern of renal damage (region affected) [6]: mostly the cortex and, to a lesser extent, the medulla
- urinary NGAL [8, 12]: significantly increases
- urinary TCP1-eta [8, 12]: significantly increases
- Plasma creatinine [11]: significantly increases
